Experimental data published in patent US20240246968A1, “SMALL MOLECULE INHIBITORS OF KRAS G12C MUTANT” (Merck Sharp & Dohme LLC, priority 2021, published 2024).

What was measured:
MIA PaCa-2 cells = assay: Growth inhibition activity on KRAS-G12C mutant cell line (MIA PaCa-2), CellTiter-Glo 3D; format: cell-based, human; details: MIA PaCa-2, 3-day culture with compound
Protocol: MIA PaCa-2 cells (given by Sumitomo Dainippon Pharma Co., Ltd.), which are a KRAS-G12C mutant human pancreas cancer cell line, were suspended in a 10% fetal bovine serum-containing RPMI1640 medium (manufactured by Fujifilm Wako Pure Chemical Corporation.). The cell suspension was seeded into each well of a 384-well U bottom microplate and cultured in an incubator containing 5% CO2 gas at 37° C. for 1 day. The compounds obtained in the “Preparation of Compounds” section were used as test compounds and were dissolved in DMSO, respectively, and each test compound was diluted with DMSO to give a concentration 500 times the final concentration. The resultant solution of the test compound in DMSO was diluted with the medium used for suspending cells and added to each well of the cell-culture plate to give a DMSO final concentration of 0.2%, followed by culture in an incubator containing 5% CO2 gas at 37° C. for another 3 days. The cell count after 3-day culture in the presence of the test compound was measured using CellTiter-Glo 3D Reagent (manufactured by Promega Corporation). All wells were added with CellTiter-Glo 3D Reagent and mixed for 10 minutes. 30 minutes after mixing, luminescence was measured by a plate reader. The growth inhibition rate was calculated from the following equation, and the concentration of the test compound at which 50/o inhibition was achieved (IC50 (nM)) was determined. The following tables show the results.
[formula] • T: the emission intensity in a well into which a test compound was added. • C: the emission intensity in a well into which a test compound was not added.

[1] = target: Gppcp-bound recombinant K-Ras4B G12C mutant protein (amino acids 1-169, C51S/C80L/C118S) (Homo sapiens, UniProt P01116, C118S/C51S/C80L/G12C); assay: KRASG12C binding assay (LC-MS, compound binding rate); details: test compound final concentration 0.5 μM, 25° C., 1 hour
Protocol: As test compounds for the KRASG12C binding assay, the compounds obtained in the “Preparation of Compounds” section were used. Sample solutions each containing a test compound were prepared in the form of a 10 mM DMSO solution.
Gppcp-bound recombinant K-Ras4B G12C mutant protein (amino acids 1-169, C51S/C80L/C118S, SEQ ID NO:1) was diluted with a buffer (1×TBS, 0.1 mM TCEP, 0.25 mM MgCl2, 50 μM Gppcp) to prepare a 50 nM protein solution. K-Ras4B is the major splicing variant of K-Ras. Amino acid sequence of residues 1 to 150 including the compounds' binding region of K-Ras4B is exactly same as that of K-Ras4A, the other splicing variant (Oncotarget. 2016 Jul. 19; 7(29): 46717-46733). A sample solution containing 10 mM test compound was diluted ten-fold with DMSO to make a 1 mM sample solution, and then diluted twenty-fold with DMSO to make a 50 μM sample solution. 1 μL of a 50 μM sample solution was added to 100 μL of a 50 nM protein solution to adjust the final concentration of a test compound to be 0.5 μM in the mixture. The mixtures were stored in an incubator at 25° C. for 1 hour, and 10 μL of a 1×TBS solution containing 2% formic acid was added to stop the reaction, followed by LC-MS measurement. LC-MS measurement was performed using Xevo G2-S Q-Tof manufactured by Waters, and reverse-phase chromatography was performed with a desalting column. A mass spectrum of positive ions was obtained by electrospray. For a mass spectrum, a spectrum of polyvalent ions was collectively converted to a molecular weight by using OpenLynx software by the MaxEnt technique, and a compound binding rate was calculated from the ratio of the signal intensity of a peak that corresponds to the molecular weight of the protein to the signal intensity of a peak that corresponds to the molecular weight of the protein conjugated with the compound.
The binding assay of the test compounds was conducted at a final concentration of 0.5 μM. A binding rate of 80% or more is rated “A”, a binding rate of 60% or more and less than 80% is rated “B”, a binding rate of 40% or more and less than 60% is rated “C”, a binding rate of 20% or more and less than 40% is rated “D”, and a binding rate of less than 20% is rated “E”. N.D.=not determined. Binding rate % is the ratio of KRAS signal intensity at the molecular weight of one molecule adduct to the sum of all the KRAS signal intensity (unbound form and adducts) in mass spectrum. Thus, binding rate 100% means that only the one molecule adduct was observed without any unbound KRAS. The following tables show the results.

[2] = target: T1, interaction between recombinant K-Ras4B G12C mutant protein and cRAF RAS-binding domain (cRAF-RBD) (Homo sapiens, UniProt P01116, G12C); assay: Inhibitory activity on interaction between KRAS G12C and cRAF (Alpha technology); format: biochemical; details: GMPPNP-bound KRAS G12C incubated with compound at 25° C. for 1 hour, then cRAF-RBD; Alpha signal
T1 construct: made in house; host or cells: E. coli
Protocol: Interaction between recombinant K-Ras4B G12C mutant protein (amino acids 1-169, SEQ ID NO:2) and cRAF RAS-binding domain (cRAF-RBD, amino acids 50-132, Jena Biosciences GmbH) was measured using Alpha technology (PerkinElmer Inc.).
Recombinant KRAS G12C protein with an N-terminal His-tag was expressed in E. coli and purified by affinity chromatography. To prepare GTP-bound form and GDP-bound form of KRAS G12C protein. 50 μM KRAS G12C protein was incubated with 1 mM GMPPNP (Guanosine-5′-[(β,γ)-imido]triphosphate. Tetralithium salt)(Jena Bioscience GmbH) and 1 mM GDP, respectively, in a loading buffer (20 mM Tris-HCl (pH 7.5), 50 mM NaCl, 1 mM DTT and 2.5 mM EDTA) for 1 hour on ice. After the incubation, MgCl2 was added to a final concentration of 10 mM, followed by incubation at room temperature for 30 minutes. The mixture was allowed to pass through a NAP-5 column to remove free nucleotides and purified, and the resultant nucleotide-bound KRAS G12C protein was used for compound evaluation.
For the measurement of the inhibitory activity of compounds on interaction between KRAS G12C and cRAF-RBD, GMPPNP-bound KRAS G12C protein was incubated with various concentrations of compound in a reaction buffer (20 mM Tris-HCl (pH 7.5), 100 mM NaCl, 1 mM MgCl2, 1 mM TCEP. 0.1% Tween 20) at 25° C. for 1 hour. After the incubation, recombinant cRAF-RBD and Alpha detection reagents were added and incubated at room temperature for 1.5 hours for binding. Interaction of KRAS G12C and cRAF-RBD was monitored by measuring Alpha signal. Inhibition % was calculated using the signal from the reaction without test compound (DMSO control) as 0% inhibition and the signal from the reaction using GDP-bound KRAS G12C in place of GMPPNP-bound KRAS G12C as 100% inhibition. IC50 values were calculated from dose titration curve using curve fitting by XLfit software (IDBS). The following tables show the results.

IC50 (MIA PaCa-2 cells; Homo sapiens, MIA PaCa-2, 72 h) [nM]	IC50 [2] [nM]	IC50 (MIA PaCa-2 cells) [nM]	Compound	binding rate [1]
200	97		Cc1nc2cc(-c3cccn4c(C(=O)c5cc(F)c(NC(=O)/C=C/CN[C@@H]6CCC[C@@H](F)C6)c(F)c5)ccc34)c(C(F)(F)F)cc2n1C (racemic) [Example 90, (E)-N-(4-(8-(1,2-dimethyl-6-(trifluoromethyl)-1H-benzo[d]imidazol-5-yl)indolizine-3-carbonyl-2,6-difluorophenyl)-4-(((1R,3R)-3-fluorocyclohexyl)amino)but-2-enamide and (E)-N-(4-(8-(1,2-dimethyl-6-(trifluoromethyl)-1H-benzo[d]imidazol-5-yl)indolizine-3-carbonyl)-2,6-difluorophenyl)-4-(((1S,3S)-3-fluorocyclohexyl)amino)but-2-enamide]	A (A binding rate of 80% or more is rated “A”)
280	83		Cc1nc2cc(-c3cccn4c(C(=O)c5cc(F)c(NC(=O)/C=C/CN[C@@H]6CCC[C@H](F)C6)c(F)c5)ccc34)c(C(F)(F)F)cc2n1C (racemic) [Example 94, (E)-N-(4-(8-(1,2-dimethyl-6-(trifluoromethyl)-1H-benzo[d]imidazol-5-yl)indolizine-3-carbonyl)-2,6-difluorophenyl)-4-(((1R,3S)-3-fluorocyclohexyl)amino)but-2-enamide and (E)-N-(4-(8-(1,2-dimethyl-6-(trifluoromethyl)-1H-benzo[d]imidazol-5-yl)indolizine-3-carbonyl)-2,6-difluorophenyl-4-(((1S,3R)-3-fluorocyclohexyl)amino)but-2-enamide]	A (A binding rate of 80% or more is rated “A”)
	29	79	CO[C@H]1CC[C@H](NC/C=C/C(=O)Nc2c(F)cc(C(=O)c3ccc4c(-c5c(C)cc6c(ncn6C)c5Cl)cccn34)cc2F)CC1 (single isomer, unassigned) [Example 12-1, (E)-N-(4-(8-(4-chloro-1,6-dimethyl-1H-benzo[d]imidazol-5-yl)indolizine-3-carbonyl)-2,6-difluorophenyl)-4-(((1r,4r)-4-methoxycyclohexyl)amino)but-2-enamide]	A (A binding rate of 80% or more is rated “A”)
	160	270	CO[C@H]1CC[C@H](NC/C=C/C(=O)Nc2c(F)cc(C(=O)c3ccc4c(-c5c(C)cc6c(ncn6C)c5Cl)cccn34)cc2F)CC1 (single isomer, unassigned) [Example 12-2, (E)-N-(4-(8-(4-chloro-1,6-dimethyl-1H-benzo[d]imidazol-5-yl)indolizine-3-carbonyl)-2,6-difluorophenyl)-4-(((1r,4r)-4-methoxycyclohexyl)amino)but-2-enamide]	B (a binding rate of 60% or more and less than 80% is rated “B”)
	46	32	Cc1cc2c(ncn2C)c(Cl)c1-c1cccn2c(C(=O)c3cc(F)c(NC(=O)/C=C/CNC(C)(C)C)c(F)c3)ccc12 (single isomer, unassigned) [Example 13-1, (E)-4-(tert-butylamino)-N-(4-(8-(4-chloro-1,6-dimethyl-1H-benzo[d]imidazol-5-yl)indolizine-3-carbonyl)-2,6-difluorophenyl)but-2-enamide]	A (A binding rate of 80% or more is rated “A”)
	320	220	Cc1cc2c(ncn2C)c(Cl)c1-c1cccn2c(C(=O)c3cc(F)c(NC(=O)/C=C/CNC(C)(C)C)c(F)c3)ccc12 (single isomer, unassigned) [Example 13-2, (E)-4-(tert-butylamino)-N-(4-(8-(4-chloro-1,6-dimethyl-1H-benzo[d]imidazol-5-yl)indolizine-3-carbonyl)-2,6-difluorophenyl)but-2-enamide]	A (A binding rate of 80% or more is rated “A”)
28	57		COc1cc2c(ncn2C)c(Cl)c1-c1cccn2c(C(=O)c3cc(F)c(NC(=O)/C=C/CNC(C)(C)C)c(F)c3)ccc12 (single isomer, unassigned) [Example 14-1, (E)-4-(tert-butylamino)-N-(4-(8-(4-chloro-6-methoxy-1-methyl-1H-benzo[d]imidazol-5-yl)indolizine-3-carbonyl)-2,6-difluorophenyl)but-2-enamide]	A (A binding rate of 80% or more is rated “A”)
	56	42	COc1cc2c(ncn2C)c(Cl)c1-c1cccn2c(C(=O)c3cc(F)c(NC(=O)/C=C/CNC(C)(C)C)c(F)c3)ccc12 (single isomer, unassigned) [Example 14-2, (E)-4-(tert-butylamino)-N-(4-(8-(4-chloro-6-methoxy-1-methyl-1H-benzo[d]imidazol-5-yl)indolizine-3-carbonyl)-2,6-difluorophenyl)but-2-enamide]	A (A binding rate of 80% or more is rated “A”)
	20.2	42.6	COc1c(-c2cc(F)cn3c(C(=O)c4cc(F)c(NC(=O)/C=C/CNC5(C)CC5)c(F)c4)cnc23)c(C(F)(F)F)cc2c1nc(C)n2C (single isomer, unassigned) [Example 112-1, (E)-N-(2,6-difluoro-4-(6-fluoro-8-(4-methoxy-1,2-dimethyl-6-(trifluoromethyl)-1H-benzo[d]imidazol-5-yl)imidazo[1,2-a]pyridine-3-carbonyl)phenyl)-4-((1-methylcyclopropyl)amino)but-2-enamide]	
